Our source for the TGI and GI50 values is PubChem BioAssay (NCI).

Structures are written as SMILES.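 Values below derive from 48-hour exposures of cells grown in 96-well plates, with endpoints linearly interpolated between the two concentrations bracketing the appropriate inhibition level. GI50 = concentration required for 50% inhibition of growth. TGI: total growth inhibition.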

Among the test systems are 786-0 renal; HCC-2998 colon; LOX IMVI melanoma; NCI-H460 lung; SNB-19 CNS; SR leukemia; SW-620 colon; U251 CNS; UACC-62 melanoma.
Holding throughout (assay): growth of human tumour cells (NCI), 48 h

As for `CC1OC(n2cc(I)c(=O)[nH]c2=O)C=CC1=O` (stereo unspecified), the TGI in the experiment on 786-0 renal came out at 26.9 µM; in the experiment on HCC-2998 colon, 31.5 µM; in the experiment with LOX IMVI melanoma it was 19.6 µM; with NCI-H460 lung, 35.1 µM; with SNB-19 CNS, 32.1 µM; with SR leukemia it was 32.2 µM. For the same compound, the results for the TGI in the experiment on SW-620 colon, with U251 CNS and with UACC-62 melanoma were 26.8 µM, 27.6 µM and 31.2 µM, respectively.

Regarding `CCOC(=O)NN(C(=O)OCC)C(C(=O)c1ccc(Cl)cc1)=C1NCCN1`, the TGI in the experiment with 786-0 renal, in the experiment on HCC-2998 colon, with LOX IMVI melanoma, in the experiment with NCI-H460 lung, with SNB-19 CNS and in the experiment with SR leukemia was above 100 µM throughout. Besides, the TGI in the experiment with SW-620 colon, with U251 CNS and with UACC-62 melanoma was above 100 µM each time.

In the case of `N#CC(C#N)=Cc1ccc(Oc2ccccc2)cc1`, the TGI is 33 µM in the experiment with 786-0 renal; above 100 µM in the experiment with HCC-2998 colon; 30.8 µM in the experiment on LOX IMVI melanoma; above 100 µM in the experiment with NCI-H460 lung; above 100 µM in the experiment on SNB-19 CNS; above 100 µM in the experiment on SR leukemia. Besides, the TGI with SW-620 colon is 72.3 µM; with U251 CNS, above 57 µM; with UACC-62 melanoma, 35 µM.

Turning to `C[C@]12CC/C(=N\OC(=O)Nc3ccccc3)C=C1CC[C@@H]1C2CC[C@@]2(C)C1CC[C@@H]2OC(=O)Nc1ccccc1` (stereo partly specified), the TGI in the experiment with 786-0 renal, in the experiment with HCC-2998 colon, in the experiment on LOX IMVI melanoma, in the experiment on NCI-H460 lung, in the experiment with SNB-19 CNS and in the experiment on SW-620 colon was above 100 µM in each case. The TGI with U251 CNS and with UACC-62 melanoma was above 100 µM throughout.

For `CCCCC/C=C\C/C=C/CCCCCCCCNC(=O)Nc1ccc([N+](=O)[O-])cc1`, the GI50 with 786-0 renal was 29.5 µM; in the experiment with HCC-2998 colon it was 15.7 µM; with LOX IMVI melanoma, 5.75 µM; in the experiment on NCI-H460 lung it was 21.9 µM; in the experiment on SNB-19 CNS, 9.07 µM; in the experiment on SR leukemia, 10.8 µM. Besides, the figures for the GI50 in the experiment with SW-620 colon, in the experiment with U251 CNS and with UACC-62 melanoma were 5.51 µM, 6.05 µM and 2.9 µM, respectively. For the same compound, the TGI in the experiment with 786-0 renal is above 100 µM; with HCC-2998 colon, above 100 µM; in the experiment on LOX IMVI melanoma, above 100 µM; with NCI-H460 lung, above 100 µM; in the experiment with SNB-19 CNS, above 100 µM; with SR leukemia it was 37.6 µM. The TGI in the experiment with SW-620 colon, in the experiment with U251 CNS and in the experiment with UACC-62 melanoma was above 100 µM each time.

Take `O=C(CC(=O)c1cccc([N+](=O)[O-])c1)C(=O)Nc1nc([N+](=O)[O-])cs1`: the TGI with 786-0 renal, in the experiment with HCC-2998 colon, in the experiment on LOX IMVI melanoma, with NCI-H460 lung, in the experiment with SNB-19 CNS and in the experiment on SR leukemia was above 100 µM each time. Moreover, the TGI in the experiment with SW-620 colon, in the experiment with U251 CNS and in the experiment on UACC-62 melanoma was above 100 µM throughout.

`[O]=[W](=[O])([OH])[OH]`: the GI50 with 786-0 renal, with HCC-2998 colon, in the experiment on NCI-H460 lung, in the experiment on SNB-19 CNS, in the experiment with SR leukemia and with SW-620 colon was above 100 µM in each case. In addition, the GI50 in the experiment on U251 CNS and in the experiment with UACC-62 melanoma was above 100 µM in each case. The TGI in the experiment on 786-0 renal, in the experiment with HCC-2998 colon, with NCI-H460 lung, in the experiment with SNB-19 CNS, with SR leukemia and with SW-620 colon was above 100 µM each time. In addition, the TGI in the experiment with U251 CNS and in the experiment on UACC-62 melanoma was above 100 µM each time.

For `O=c1[nH]c(=O)n(C2OC(CO)C(O)C2O)cc1OCc1ccccc1` (stereo unspecified), the TGI was above 100 µM in the experiment with 786-0 renal; above 100 µM in the experiment with HCC-2998 colon; above 31.6 µM in the experiment with LOX IMVI melanoma; above 100 µM in the experiment on NCI-H460 lung; above 100 µM in the experiment with SNB-19 CNS; above 67.5 µM with SR leukemia. Moreover, the TGI is above 71.8 µM in the experiment on SW-620 colon, above 72.2 µM with U251 CNS and above 100 µM with UACC-62 melanoma.

Regarding `CC(=O)OCc1c(C)c2ccccc2n1C(C)=O`, the TGI with 786-0 renal is above 100 µM; with HCC-2998 colon, above 100 µM; in the experiment with LOX IMVI melanoma, above 100 µM; in the experiment on SNB-19 CNS it was above 100 µM; in the experiment with SR leukemia, 76.1 µM; in the experiment with SW-620 colon, above 100 µM. Also, the TGI in the experiment with U251 CNS and with UACC-62 melanoma was above 100 µM in each case.

For the compound `CN1CCc2cc(O)c3cc2C1Cc1ccc(cc1)Oc1cc(ccc1O)CC1c2c(cc4c(c2O3)OCO4)CCN1C` (stereo unspecified), the TGI was above 100 µM with 786-0 renal; 41.7 µM in the experiment on HCC-2998 colon; above 100 µM in the experiment on NCI-H460 lung; above 100 µM in the experiment on SNB-19 CNS; above 100 µM in the experiment on SR leukemia; above 100 µM in the experiment with U251 CNS. For the same compound, the TGI in the experiment with UACC-62 melanoma worked out at 47.5 µM.

As to `O=[N+]([O-])c1cc([N+](=O)[O-])c(C(Cl)C(Cl)c2ccccc2)cc1C(Cl)C(Cl)c1ccccc1` (stereo unspecified), the TGI in the experiment with 786-0 renal is 3.12 µM; in the experiment on HCC-2998 colon it was 3.33 µM; in the experiment with LOX IMVI melanoma it was 3.57 µM; with SNB-19 CNS it was 6.53 µM; in the experiment on SR leukemia, above 100 µM; in the experiment with SW-620 colon, 3.46 µM. Also, the values for the TGI with U251 CNS and with UACC-62 melanoma were 3.26 µM and 3.7 µM, respectively.

Take `O=C1C(Cl)=C(Nc2cccc(O)c2)C(=O)N1c1ccc(Cl)cc1Cl`: the GI50 in the experiment with 786-0 renal was 32.8 µM; in the experiment with LOX IMVI melanoma it was 19.3 µM; with NCI-H460 lung it was 27.5 µM; in the experiment on SNB-19 CNS, 29.9 µM; in the experiment with SR leukemia, 2.76 µM; with SW-620 colon, 17.3 µM. Moreover, the GI50 with U251 CNS is 19 µM; with UACC-62 melanoma it was 21.4 µM. For the same compound, the TGI with 786-0 renal is above 100 µM; in the experiment on LOX IMVI melanoma, 48.3 µM; in the experiment on NCI-H460 lung it was above 100 µM; with SNB-19 CNS, above 100 µM; with SR leukemia, 26.9 µM; in the experiment on SW-620 colon, 38.3 µM. Further, the figures for the TGI in the experiment on U251 CNS and with UACC-62 melanoma were 66.7 µM and 57.7 µM, respectively.
